In brackets after ≈: the same amount, converted by molar mass. Several values for one entry are separate records, joined by “and”; a condition that tells them apart may be missing. Equal entries are not always repeated. Where two headings read alike, the source gives them in different places.
Columns and labels:
Assay type in all cases: physicochemical
[1] = Intrinsic dissolution at individual pH sectors (GLpKa, 3 mm disks, 30 min); settings: for solubility at 30 min: acetate–phosphate buffer with KCl; for Dissolution Rate: fit of Noyes–Whitney equation; for % Dissolved at t = 30 min: single-pH sector
[2] = XRPD analysis of the tablet surface after the single-pH dissolution experiments
Method: X-ray powder diffraction (XRPD) patterns of new cocrystals of AD were measured on a PANalytical (Malvern, UK) X’Pert PRO MPD (transmission configuration with Cu Kα radiation, λ = 1.54187 Å) with a focalizing elliptic mirror and a PIXcel detector and a maximum detector’s active length of 3.347°. Transmission geometry configuration included a convergent beam with a focalizing mirror, a flat sample sandwiched between low absorbing films measuring from 1 to 40° in 2θ, a step size of 0.026° and a measuring time of 8 to 30 min at room temperature (25 °C). Capillary geometry has been used with AD–Resorcinol (Form I) placed in a glass capillary (Lindemman) 0.5 mm in diameter measuring from 2 to 70° in 2θ, with a step size of 0.013° and a total measuring time of 18 h. The powder diffractograms were indexed and the lattice parameters were refined by means of Le Bail fits by means of Dicvol04 [35], and the space group was determined from the systematic absences.
The first set of studies was performed at different pH sectors (1.5, 4.0, 5.5 and 7.4) which are typically encountered in the gastrointestinal tract (GIT), and individual dissolution rates were determined at each pH sector. To perform these experiments, disks of 3mm diameter containing 6–10 mg of the drug or cocrystal were prepared by applying a constant pressure of 0.1 ton for 2 min with a manual hydraulic tablet press (Applied Measurements Specac Ltd, Orpington UK). The tablet was placed in a holder, and only one side of the tablet was exposed to the dissolution medium. The total exposed surface area was 0.07 cm^2. A total of 1.5 mL of 0.125 M acetate–phosphate buffer at pH 1.6 was introduced into the vial without wetting the tablet surface. The instrument then automatically added 13.5 mL of 0.15 M KCl solution and adjusted the pH to the required value (see Table S2 for exact experimental details). Spectra collection started immediately after. Spectra were recorded every 30 s for 30 min. The medium was stirred at a constant rate. The solid state of the remaining disks was analyzed using XRPD.
The XRPD analysis of the tablet surface after the dissolution experiments confirms that there is some transformation of the solid form. The highest transformation occurs for AD tablets, where 20% of the initial AD (Form I) is transformed into the dihydrate. This transformation is reproducible, as deduced by the low error bars in the dissolution profiles. In the case of cocrystals, they mainly remain in its original solid form; the 5–10% of the free AD (Form I) observed in the analysis of the tablets could be the result of AD deposition during the experiments since the saturation concentration is reached very quickly, rather than a solid phase transformation in the surface of the tablet.

[3] = Dissolution in a four-pH sector sequence (pH 1.5 to 7.4, 30 min at each pH, GLpKa)
Method: A second set of experiments was performed with the same instrument. However, determinations were made in a full sequence of pHs (from 1.5 to 7.4) maintained for 30 min at each individual pH. To change the pH, KOH was added to the medium (Table S3).
Compared to the single-pH experiments, the four-pH sectors determination provides dynamic information of the dissolution behavior of the compounds along the GIT. Now, the dissolution test starts at pH 1.5, and dissolution is monitored for 30 min. Then, the pH is raised to 4.0, 5.5, and finally, 7.4, monitoring dissolution for 30 min at each pH.

[4] = Biphasic four-pH sector dissolution with 1-decanol lipid layer (Pion inForm); settings: for Transfer of AD towards the organic layer (1-decanol): pH 4.0 sector
Method: The third set of measurements were performed using a Pion inForm automated titrator system from Pion (Pion-Inc., Billerica, MA, USA, www.pion-inc.com) with an incorporated UV-Vis spectrophotometer to acquire the spectrophotometric data. The optical system also consisted of a photodiode array detector with a deuterium lamp and included two fiber optic dip probes. The titrator module included a temperature controller (a Peltier device with in-situ thermocouple), pH electrode, an overhead stirrer and motorized dispensers for the automatic delivery of assay titrants and reagents via capillaries. The instrumentation was operated by inForm Control and Assay Designer software (version 1.6.0.0). The Pion inForm system was used for the biphasic dissolution studies. Samples were prepared as described previously, and studies were performed consecutively through the four different pH sectors, with the addition of a lipid layer (1-decanol) in the second sector to mimic the absorption in the GIT. The dissolution media consisted of 40 mL of aqueous solution, which was added automatically to an 80 mL dissolution vessel and brought to 25 °C (±0.1 °C). Once the media were adjusted to the starting pH and temperature, each sample was added automatically, and data collection was started from the point of sample introduction. The lipid layer (30 mL) was added in the second pH sector after the pH was adjusted to 4.0 (see Table S4 for exact experimental details). The two UV optic fiber probes each with a 10mm path length, were used on the inForm platform for quantitating the drug in the aqueous phase and in the lipid layer. Stirring of the solution was continuous at a rate of 100 rpm through the four sectors. Spectral and pH data were collected with a frequency of 30 s over a period of 2 h.
Contrary to GLpKa, which has a fixed probe with a 10 mm path length that cannot be exchangeable with different path length size tips, Pion inForm is provided with two UV probes, both with a 10 mm path length: a fixed path-length and an exchangeable path-length. These probes were used for the aqueous and the lipid media, respectively. In this way, the UV data collected for the three cocrystals could be quantified using the MECs of orcinol, resorcinol and hydroquinone. Moreover, in the inForm system a greater volume of solution is used (40 mL instead of 15 mL of water used for the GLpKa). Therefore, the signal was not saturated, and the UV spectra for the coformers and the adefovir could be distinguished between them.
In order to study dissolution under conditions that mimic in vivo conditions more closely than other systems, the final set of experiments was carried out in a biphasic dissolution system. The test consists again in a four-pH sectors experiment, but in this case, 1-decanol was added in the second sector (pH 4.0) to simulate the contact with lipidic membranes. Then, the API concentration was monitored simultaneously in both phases through two different optic fiber probes.

[5] = pKa determination
[6] = pH 1.5, SD in parenthesis, n = 3
[7] = pH 4.0, SD in parenthesis, n = 3
[8] = pH 5.5, SD in parenthesis, n = 3
[9] = pH 7.4, SD in parenthesis, n = 3

SMILES | Dissolution Rate [1, 6] | % Dissolved at t = 30 min [1, 6] | Dissolution Rate [1, 7] | % Dissolved at t = 30 min [1, 7] | Dissolution Rate [1, 8] | % Dissolved at t = 30 min [1, 8] | Dissolution Rate [1, 9] | % Dissolved at t = 30 min [1, 9] | Final Solid Form on tablet surface after dissolution ([2]; pH 1.5) | Final Solid Form on tablet surface after dissolution ([2]; pH 4.0) | Final Solid Form on tablet surface after dissolution ([2]; pH 5.5) | Final Solid Form on tablet surface after dissolution ([2]; pH 7.4) | Transfer of AD towards the organic layer (1-decanol) [4] | other results
CC(C)(C)C(=O)OCOP(=O)(COCCn1cnc2c(N)ncnc21)OCOC(=O)C(C)(C)C [AD, 9-{2-[Bis(pivaloyloxymethoxy)phosphinylmethoxy]ethyl}adenine] | 315 (4) nmols/min | 29.0 (1.0) % | 35 (4) nmols/min | 5.7% and 5.7 (0.4) % | 21 (4) nmols/min | 3.8% and 3.8 (0.6) % | 17 (2) nmols/min | 3.3% and 3.3 (0.4) % | Form I + AD–dihydrate (80%:20%) | Form I + AD–dihydrate (80%:20%) | Form I + AD–dihydrate (80%:20%) | Form I + AD–dihydrate (80%:20%) | even slower | solubility at 30 min ([1]; aqueous buffer, thermodynamic from solid, pH 1.5, SD in parenthesis, n = 3, read-out: AD Solubility): 325 µM (≈ 163 µg/mL); solubility at 30 min ([1]; aqueous buffer, thermodynamic from solid, pH 4.0, SD in parenthesis, n = 3, read-out: AD Solubility, extrapolated (from Equation (1))): 139 µM (≈ 69.7 µg/mL); solubility at 30 min ([1]; aqueous buffer, thermodynamic from solid, pH 5.5, SD in parenthesis, n = 3, read-out: AD Solubility, extrapolated (from Equation (1))): 128 µM (≈ 64.2 µg/mL); solubility at 30 min ([1]; aqueous buffer, thermodynamic from solid, pH 7.4, SD in parenthesis, n = 3, read-out: AD Solubility, extrapolated (from Equation (1))): 123 µM (≈ 61.7 µg/mL); solubility at 30 min ([1]; pH 1.5, read-out: Solubility for AD indicated by the plateaus of the cocrystal profiles): ~300 µM (≈ 150 µg/mL); Saturation concentration of AD ([1]; rest of pH values (4.0, 5.5, 7.4), particularly pH 5.5 and 7.4): around 100 μM; Share of the initial solid form transformed / other form found on tablet after dissolution ([2]; XRPD of tablet surface): 20%; % of API dissolved, four-pH sector test ([3]; pH 1.5 sector): 30%; % of AD in solution, four-pH sector test ([3]; pH 4.0 sector): 25%; % of AD in solution, four-pH sector test ([3]; pH 5.5 sector): 20%; % of AD in solution, four-pH sector test ([3]; pH 7.4 sector): 20%; pKa [5]: 3.78 ± 0.05
CC(C)(C)C(=O)OCOP(=O)(COCCn1cnc2c(N)ncnc21)OCOC(=O)C(C)(C)C.Oc1ccc(O)cc1 [AD–hydroquinone cocrystal] |  |  |  |  |  |  |  |  |  |  |  |  | slightly slower | Slope of dissolution profile in the first pH sector ([4]; pH 1.5, aqueous phase): inferior slope compared to the cocrystals with resorcinol and orcinol
CC(C)(C)C(=O)OCOP(=O)(COCCn1cnc2c(N)ncnc21)OCOC(=O)C(C)(C)C.Cc1cc(O)cc(O)c1 [AD–Orc cocrystal] | 626 (40) nmols/min | 39.2 (1.1) % | 147 (47) nmols/min | 14.7 (1.6) % | 17 (1) nmols/min | 10.6 (2.5) % | 17 (3) nmols/min | 13.1 (3.6) % | Cocrystal + AD–dihydrate (90%:10%) | Cocrystal + AD–dihydrate (90%:10%) | Cocrystal + AD–dihydrate (90%:10%) | Cocrystal + AD–dihydrate (90%:10%) | rapid transfer of AD towards the organic layer | 
CC(C)(C)C(=O)OCOP(=O)(COCCn1cnc2c(N)ncnc21)OCOC(=O)C(C)(C)C.Oc1cccc(O)c1 [AD–Res cocrystal (Form I)] | 1015 (6) nmols/min | 39.3 (1.3) % | 63 (2) nmols/min | 16.1 (2.0) % | 19 (1) nmols/min | 12.2 (2.0) % | 15 (1) nmols/min | 10.9 (2.7) % | Cocrystal (Form I) + AD–dihydrate (95%:5%) | Cocrystal (Form I) + AD–dihydrate (95%:5%) | Cocrystal (Form I) + AD–dihydrate (95%:5%) | Cocrystal (Form I) + AD–dihydrate (95%:5%) | rapid transfer of AD towards the organic layer | 

Reference: PMC9692677, “Virtual Cocrystal Screening of Adefovir Dipivoxyl: Identification of New Solid Forms with Improved Dissolution and Permeation Profiles” (Pharmaceutics, 2022)
